Source: patent US20200031785A1, “METHODS FOR TREATING CHRONIC PAIN AND OPIOID DEPENDENCE USING ADENYLYL CYCLASE INHIBITORS” (Purdue Research Foundation, priority 2017, published 2020)

Experiments:
[1] = target: T1, hAC8 (Homo sapiens, UniProt P40145); test: Cyclic AMP accumulation in HEK cells stably expressing AC8, stimulated with A23187 (HTRF); format: cell-based; settings: HEK-AC8 cells; for inhibition at 30 µM: HEK293; for IC50: read-out: HEK-AC8 IC50
T1 construct: expressed in transfected cells
Method: (§1) Fresh powders of several robust inhibitors (>90% inhibition) were evaluated in multiple confirmation assays assessing the dose response relationship for inhibiting AC1 and AC8 activity. Confirmation assays used A23817 to selectively stimulate recombinant AC1 or AC8 in the HEK cell background (Cumbay and Watts (2001), J. Pharmacol Exp Ther 297:1201-1399). This approach takes advantage of one unique regulatory property of AC1 for the development of selective inhibitors. Both AC1 and AC8 are robustly activated by Ca^2+/CaM under a variety of conditions, whereas the effects of Ca^2+/CaM on AC3 are modest and conditional requiring activation by G proteins. Previous studies have identified unique Ca^2+/CaM binding domains as one possible site of interaction to achieve AC1 (vs. AC8) selectivity (Masada et al., 2012, Biochemistry 51:7917-7929).
(§2) The primary technology we employed to measure cAMP accumulation was a homogenous time-resolved fluorescence (HTRF) assay, the same technology utilized in the primary screen. […] This could be due to either 1) the chemical scaffolds are exquisitely selective toward the AC family of enzymes or 2) the library has not been screened against a sufficient number of targets. The answer is likely a combination of the two; nonetheless, the lack of biological data to date bodes well for these series and any potential off-target promiscuity.
(§3) Human embryonic kidney (HEK) cells stably expressing AC1, AC8, or AC1 with the MOR were cultured in Dulbecco's Modified Eagle Medium (Life Technologies, Grand Island, N.Y.) supplemented with 5% bovine calf serum (Hyclone, Logan, Utah), 5% fetal clone I (Hyclone), Antibiotic-Antimycotic (Life Technologies), and G418 (Invivogen, San Diego, Calif.) (HEK-AC1), or hygromycin B (Fisher Scientific, Pittsburgh, Pa.) (HEK-AC8), or G418 and puromycin (Sigma-Aldrich) (HEK-AC1/MOR). Chinese hamster ovary (CHO) cells expressing the MOR (CHO-MOR) in the PathHunter® β-Arrestin GPCR assay platform were purchased from DiscoveRx (Freemont, Calif.). Cells were grown in Ham's F12 media supplemented with 1 mM L-glutamine (Thermo Scientific, West Palm Beach, Fla.), 10% fetal bovine serum (Hyclone), 50 U/ml penicillin, 50 μg/ml streptomycin (Life Technologies), G418 and hygromycin B. Cells were grown and frozen as previously described (J. M. Conley, et al., J Vis Exp, e51218 (2014)).
(§4) Cyclic AMP accumulation was measured as previously described (Brust, et al., J. Pharmacol. Exp. Ther. 352, 480-493(2015)). Briefly, cryopreserved cells were thawed, resuspended in optiMEM (Life Technologies), and plated in white, flat bottom, low-volume, tissue culture-treated 384 well plates (PerkinElmer, Shelton, Conn.). Plates with cells were incubated in a 37° C. humidified incubator for 1 h. Inhibitors were added and plates were incubated at room temperature for 30 min followed by the addition of AC stimulants in the presence of 500 μM IBMX. Cells were incubated at room temperature for 1 h and cAMP accumulation was measured using Cisbio's cAMP kit (Cisbio Bioassays, Bedford, Mass.) according to the manufacturer's instructions.

[2] = target: T2, hAC1 (Homo sapiens, UniProt Q08828); test: Cyclic AMP accumulation in HEK cells stably expressing AC1, stimulated with A23187 (HTRF); format: cell-based; settings: HEK-AC1 cells; for inhibition at 30 µM: HEK293; for IC50: read-out: HEK-AC1 IC50
T2 construct: expressed in transfected cells
Method: The development and mechanistic characterization of AC1-selective small molecule inhibitors is believed to provide novel non-opioid weapons in the war on chronic pain. We identified our initial hits via screening 10,000 selected compounds from the Life Chemicals collection. The screen was carried out using HEK cells stably expressing AC1 (HEK-AC1) and cyclic AMP accumulation was stimulated using the Ca^2+ ionophore, A23187 to selectively activate AC1. Compounds with potential chemical liabilities and PAINs were removed from further evaluation (Baell and Holloway, J. Med. Chem. 2010, 53, 2719-2740).
as §1, §2, §3, §4

T1 sequence (P40145 whole entry): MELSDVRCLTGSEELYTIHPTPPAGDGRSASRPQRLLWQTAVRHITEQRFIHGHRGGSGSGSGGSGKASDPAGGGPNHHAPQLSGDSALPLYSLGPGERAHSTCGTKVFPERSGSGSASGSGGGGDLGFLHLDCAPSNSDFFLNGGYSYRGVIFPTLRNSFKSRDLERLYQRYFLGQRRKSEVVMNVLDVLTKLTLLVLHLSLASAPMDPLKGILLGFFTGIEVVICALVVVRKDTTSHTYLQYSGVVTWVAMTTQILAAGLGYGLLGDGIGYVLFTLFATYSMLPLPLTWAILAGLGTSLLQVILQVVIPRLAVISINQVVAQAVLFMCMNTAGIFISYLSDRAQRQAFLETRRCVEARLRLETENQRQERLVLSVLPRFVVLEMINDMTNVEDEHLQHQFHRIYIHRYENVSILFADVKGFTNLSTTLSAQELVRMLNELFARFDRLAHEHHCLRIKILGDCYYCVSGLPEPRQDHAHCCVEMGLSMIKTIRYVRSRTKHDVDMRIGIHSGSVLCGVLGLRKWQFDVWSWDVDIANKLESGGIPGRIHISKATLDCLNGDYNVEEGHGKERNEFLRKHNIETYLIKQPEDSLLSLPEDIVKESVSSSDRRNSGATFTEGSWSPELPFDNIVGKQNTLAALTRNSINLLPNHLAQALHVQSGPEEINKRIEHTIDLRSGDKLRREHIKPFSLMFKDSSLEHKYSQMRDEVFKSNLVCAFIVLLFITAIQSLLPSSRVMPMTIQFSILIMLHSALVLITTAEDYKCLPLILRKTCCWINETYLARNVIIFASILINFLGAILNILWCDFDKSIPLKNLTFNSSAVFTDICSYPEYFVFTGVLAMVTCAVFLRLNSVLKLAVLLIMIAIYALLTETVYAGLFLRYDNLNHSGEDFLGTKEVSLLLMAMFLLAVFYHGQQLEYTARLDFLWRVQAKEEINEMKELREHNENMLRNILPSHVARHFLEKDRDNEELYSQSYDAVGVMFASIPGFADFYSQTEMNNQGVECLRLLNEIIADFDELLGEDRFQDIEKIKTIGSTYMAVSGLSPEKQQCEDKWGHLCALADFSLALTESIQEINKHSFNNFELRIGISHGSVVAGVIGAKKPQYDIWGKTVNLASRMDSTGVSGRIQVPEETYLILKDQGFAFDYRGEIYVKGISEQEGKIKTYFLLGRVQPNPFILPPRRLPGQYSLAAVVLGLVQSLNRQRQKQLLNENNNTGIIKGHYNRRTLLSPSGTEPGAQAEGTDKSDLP
T2 sequence (Q08828 whole entry): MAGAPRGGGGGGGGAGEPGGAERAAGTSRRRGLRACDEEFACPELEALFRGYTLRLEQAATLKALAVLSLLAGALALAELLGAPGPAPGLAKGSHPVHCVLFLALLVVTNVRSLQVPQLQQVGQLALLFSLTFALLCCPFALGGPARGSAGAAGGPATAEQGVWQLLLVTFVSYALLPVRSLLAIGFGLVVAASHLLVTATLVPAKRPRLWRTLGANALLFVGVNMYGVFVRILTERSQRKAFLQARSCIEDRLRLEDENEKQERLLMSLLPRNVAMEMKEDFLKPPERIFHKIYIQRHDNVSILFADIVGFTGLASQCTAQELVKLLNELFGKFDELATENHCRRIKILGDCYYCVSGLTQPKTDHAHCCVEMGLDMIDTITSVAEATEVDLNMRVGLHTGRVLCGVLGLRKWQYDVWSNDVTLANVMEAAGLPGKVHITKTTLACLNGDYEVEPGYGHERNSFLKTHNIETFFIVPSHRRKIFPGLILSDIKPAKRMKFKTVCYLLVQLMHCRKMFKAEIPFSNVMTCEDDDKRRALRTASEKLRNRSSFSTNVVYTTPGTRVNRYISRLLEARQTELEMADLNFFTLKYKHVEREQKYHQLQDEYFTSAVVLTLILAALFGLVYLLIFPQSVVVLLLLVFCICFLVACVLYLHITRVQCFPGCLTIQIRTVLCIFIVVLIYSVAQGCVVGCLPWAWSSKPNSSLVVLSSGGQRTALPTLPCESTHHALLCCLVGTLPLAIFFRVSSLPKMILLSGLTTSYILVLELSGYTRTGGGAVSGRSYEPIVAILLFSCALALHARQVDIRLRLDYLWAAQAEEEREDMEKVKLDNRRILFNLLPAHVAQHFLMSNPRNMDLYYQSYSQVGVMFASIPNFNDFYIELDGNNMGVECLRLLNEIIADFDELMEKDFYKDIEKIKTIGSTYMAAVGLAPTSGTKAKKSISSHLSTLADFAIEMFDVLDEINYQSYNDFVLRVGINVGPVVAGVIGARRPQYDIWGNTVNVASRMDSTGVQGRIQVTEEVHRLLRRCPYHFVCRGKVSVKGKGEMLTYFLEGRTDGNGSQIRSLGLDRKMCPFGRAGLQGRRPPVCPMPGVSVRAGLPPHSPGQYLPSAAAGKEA

Cc1ccc(C(=O)Nc2nnc(-c3ccc(F)cc3)o2)cc1 [AC10031, N-(5-(4-fluorophenyl)-1,3,4-oxadiazol-2-yl)-4-methylbenzamide]
inhibition at 30 µM [1]: 31 ± 6%
IC50 [1]: 61 ± 33 µM
inhibition at 30 µM [2]: 80 ± 10%
IC50 [2]: 7.3 ± 2 µM

Cc1ccc(C(=O)Nc2nnc(C3CCCCC3)o2)cc1 [AC10032, N-(5-cyclohexyl-1,3,4-oxadiazol-2-yl)-4-methylbenzamide]
inhibition at 30 µM [1]: 1 ± 12%
inhibition at 30 µM [2]: 78 ± 4%
IC50 [2]: 15.8 ± 2 µM

Cc1ccc(C(=O)Nc2nnc(-c3ccc4c(c3)CCCC4)o2)cc1 [AC10033, 4-methyl-N-(5-(5,6,7,8-tetrahydronaphthalen-2-yl)-1,3,4-oxadiazol-2-yl)benzamide]
inhibition at 30 µM [1]: 60 ± 8%
IC50 [1]: 25 ± 6 µM
inhibition at 30 µM [2]: 100 ± 1%
IC50 [2]: 3.4 ± 1 µM

COc1cccc(C(=O)Nc2nnc(-c3ccc(F)cc3)o2)c1 [AC10034, N-(5-(4-fluorophenyl)-1,3,4-oxadiazol-2-yl)-3-methoxybenzamide]
inhibition at 30 µM [1]: 23 ± 5%
IC50 [1]: 101 ± 14 µM
inhibition at 30 µM [2]: 79 ± 9%
IC50 [2]: 15 ± 4 µM

Cc1ccc(C(=O)Nc2nnc(-c3ccc4c(c3)OCCO4)o2)cc1C [AC10035, N-(5-(2,3-dihydrobenzo[b][1,4]dioxin-6-yl)-1,3,4-oxadiazol-2-yl)-3,4-dimethylbenzamide]
inhibition at 30 µM [1]: 61 ± 1%
IC50 [1]: 14 ± 3 µM
inhibition at 30 µM [2]: 100 ± 1%
IC50 [2]: 5.3 ± 0.4 µM

O=C(Nc1nnc(-c2ccc(F)cc2)o1)c1ccc(S(=O)(=O)N2CCCCC2)cc1 [AC10036, N-(5-(4-fluorophenyl)-1,3,4-oxadiazol-2-yl)-4-(piperidin-1-ylsulfonyl)benzamide]
inhibition at 30 µM [1]: 38 ± 7%
IC50 [1]: 39 ± 16 µM
inhibition at 30 µM [2]: 83 ± 6%

CC(C)Oc1ccc(C(=O)Nc2nnc(-c3ccc4c(c3)OCCO4)o2)cc1 [AC10037, N-(5-(2,3-dihydrobenzo[b][1,4]dioxin-6-yl)-1,3,4-oxadiazol-2-yl)-4-isopropoxybenzamide]
inhibition at 30 µM [1]: 39 ± 7%
IC50 [1]: 56 ± 23 µM
inhibition at 30 µM [2]: 88 ± 3%
IC50 [2]: 7.5 ± 0.7 µM

COc1cccc(C(=O)Nc2nnc(-c3ccc4c(c3)OCCO4)o2)c1 [AC10038, N-(5-(2,3-dihydrobenzo[b][1,4]dioxin-6-yl)-1,3,4-oxadiazol-2-yl)-3-methoxybenzamide]
inhibition at 30 µM [1]: 18 ± 10%
IC50 [1]: 115 ± 43 µM
inhibition at 30 µM [2]: 84 ± 5%
IC50 [2]: 9.6 ± 3 µM

COc1ccc(C(=O)Nc2nnc(-c3ccc(F)cc3)o2)cc1 [AC10039, N-(5-(4-fluorophenyl)-1,3,4-oxadiazol-2-yl)-4-methoxybenzamide]
inhibition at 30 µM [1]: 20 ± 6%
inhibition at 30 µM [2]: 73 ± 4%

COc1ccc(C(=O)Nc2nnc(C3CCCCC3)o2)cc1 [AC10040, N-(5-cyclohexyl-1,3,4-oxadiazol-2-yl)-4-methoxybenzamide]
inhibition at 30 µM [1]: 6 ± 16%
inhibition at 30 µM [2]: 73 ± 1%
IC50 [2]: 22 ± 3 µM

COc1ccc(C(=O)Nc2nnc(-c3ccc4c(c3)CCCC4)o2)cc1 [AC10041, 4-methoxy-N-(5-(5,6,7,8-tetrahydronaphthalen-2-yl)-1,3,4-oxadiazol-2-yl)benzamide]
inhibition at 30 µM [1]: 34 ± 11%
IC50 [1]: 46 ± 13 µM
inhibition at 30 µM [2]: 94 ± 2%
IC50 [2]: 6.4 ± 1 µM

CCc1ccc(C(=O)Nc2nnc(-c3ccc(F)cc3)o2)cc1 [AC10044, 4-ethyl-N-(5-(4-fluorophenyl)-1,3,4-oxadiazol-2-yl)benzamide]
inhibition at 30 µM [1]: 32 ± 12%
IC50 [1]: 51 ± 7 µM
inhibition at 30 µM [2]: 88 ± 4%
IC50 [2]: 8.2 ± 2 µM

CCc1ccc(C(=O)Nc2nnc(C3CCCCC3)o2)cc1 [AC10045, N-(5-cyclohexyl-1,3,4-oxadiazol-2-yl)-4-ethylbenzamide]
inhibition at 30 µM [1]: 44 ± 7%
IC50 [1]: 71 ± 14 µM
inhibition at 30 µM [2]: 91 ± 4%
IC50 [2]: 7.3 ± 3 µM

O=C(Nc1nnc(-c2ccc(F)cc2)o1)c1cccc(F)c1 [AC10046, 3-fluoro-N-(5-(4-fluorophenyl)-1,3,4-oxadiazol-2-yl)benzamide]
inhibition at 30 µM [1]: 35 ± 1%
IC50 [1]: 69 ± 11 µM
inhibition at 30 µM [2]: 81 ± 7%
IC50 [2]: 10.6 ± 3 µM

O=C(Nc1nnc(C2CCCCC2)o1)c1cccc(F)c1 [AC10047, N-(5-cyclohexyl-1,3,4-oxadiazol-2-yl)-3-fluorobenzamide]
inhibition at 30 µM [1]: 11 ± 3%
inhibition at 30 µM [2]: 79 ± 8%
IC50 [2]: 10.5 ± 2 µM

O=C(Nc1nnc(-c2ccc(F)cc2)o1)c1ccc(F)cc1 [AC10052, 4-fluoro-N-(5-(4-fluorophenyl)-1,3,4-oxadiazol-2-yl)benzamide]
inhibition at 30 µM [1]: 14 ± 3%
inhibition at 30 µM [2]: 64 ± 1%
IC50 [2]: 17 ± 2 µM

O=C(Nc1nnc(C2CCCCC2)o1)c1ccc(F)cc1 [AC10053, N-(5-cyclohexyl-1,3,4-oxadiazol-2-yl)-4-fluorobenzamide]
inhibition at 30 µM [1]: 7 ± 4%
inhibition at 30 µM [2]: 74 ± 3%
IC50 [2]: 12.8 ± 1 µM

O=C(Nc1nnc(-c2ccc(F)cc2)o1)c1ccc(Cl)cc1 [AC10054, 4-chloro-N-(5-(4-fluorophenyl)-1,3,4-oxadiazol-2-yl)benzamide]
inhibition at 30 µM [1]: 11 ± 9%
inhibition at 30 µM [2]: 76 ± 1%
IC50 [2]: 8.9 ± 1 µM

O=C(Nc1nnc(C2CCCCC2)o1)c1ccc(Cl)cc1 [AC10055, 4-chloro-N-(5-cyclohexyl-1,3,4-oxadiazol-2-yl)benzamide]
inhibition at 30 µM [1]: 10 ± 12%
inhibition at 30 µM [2]: 71 ± 5%
IC50 [2]: 13.5 ± 2 µM

O=C(Nc1nnc(-c2ccc3c(c2)CCCC3)o1)c1ccc(F)cc1 [AC10056, 4-fluoro-N-(5-(5,6,7,8-tetrahydronaphthalen-2-yl)-1,3,4-oxadiazol-2-yl)benzamide]
inhibition at 30 µM [1]: 74 ± 8%
IC50 [1]: 22 ± 4 µM
inhibition at 30 µM [2]: 98 ± 1%
IC50 [2]: 5.9 ± 1 µM

O=C(Nc1nnc(-c2ccc3c(c2)CCCC3)o1)c1cccc(F)c1 [AC10059, 3-fluoro-N-(5-(5,6,7,8-tetrahydronaphthalen-2-yl)-1,3,4-oxadiazol-2-yl)benzamide]
inhibition at 30 µM [1]: 90 ± 1%
IC50 [1]: 4.2 ± 0.2 µM
inhibition at 30 µM [2]: 99 ± 0.4%
IC50 [2]: 1 ± 0.3 µM

O=C(Nc1nnc(-c2ccc3c(c2)CCCC3)o1)c1ccc(Cl)cc1 [AC10061, 4-chloro-N-(5-(5,6,7,8-tetrahydronaphthalen-2-yl)-1,3,4-oxadiazol-2-yl)benzamide]
inhibition at 30 µM [1]: 90 ± 0.4%
inhibition at 30 µM [2]: 99 ± 1%

CCc1ccc(C(=O)Nc2nnc(-c3ccc4c(c3)CCCC4)o2)cc1 [AC10062, 4-ethyl-N-(5-(5,6,7,8-tetrahydronaphthalen-2-yl)-1,3,4-oxadiazol-2-yl)benzamide]
inhibition at 30 µM [1]: 88 ± 2%
IC50 [1]: 2 ± 0.4 µM
inhibition at 30 µM [2]: 98 ± 1%
IC50 [2]: 1.2 ± 0.2 µM

O=C(Nc1nnc(C2CCCCC2)o1)c1cccc(-c2ccccc2)c1 [AC10063, N-(5-cyclohexyl-1,3,4-oxadiazol-2-yl)-[1,1′-biphenyl]-3-carboxamide]
inhibition at 30 µM [1]: 92 ± 1%
IC50 [1]: 1.4 ± 0.4 µM
inhibition at 30 µM [2]: 99 ± 1%
IC50 [2]: 1.4 ± 0.2 µM

O=C(Nc1nnc(-c2ccc(F)cc2)o1)c1cccc(-c2ccccc2)c1 [AC10064, N-(5-(4-fluorophenyl)-1,3,4-oxadiazol-2-yl)-[1,1′-biphenyl]-3-carboxamide]
inhibition at 30 µM [1]: 84 ± 3%
IC50 [1]: 7 ± 1 µM
inhibition at 30 µM [2]: 98 ± 1%
IC50 [2]: 2.3 ± 0.4 µM

Cc1cc(C(=O)Nc2nnc(-c3ccc(F)cc3)o2)cc(C(F)(F)F)c1 [AC10065, N-(5-(4-fluorophenyl)-1,3,4-oxadiazol-2-yl)-3-methyl-5-(trifluoromethyl)benzamide]
inhibition at 30 µM [1]: 89 ± 2%
IC50 [1]: 4.1 ± 0.4 µM
inhibition at 30 µM [2]: 99 ± 0.5%
IC50 [2]: 1.4 ± 0.2 µM
